Measurements as given in patent US5096907A, “Antibiotic LL-E19085” (American Cyanamid Company, priority 1991, dated 1992).
Converted amounts (≈) assume the structure as drawn. Read-outs that look alike come from different tables or passages of the source.

Columns and labels:
Assay in all cases: In vitro antibacterial activity, agar dilution
Assay type in all cases: cell-based
Bacteroides cereus = settings: read-out: Minimal Inhibitory Concentration
Experimental: (§1) The in vitro antibacterial effects of antibiotics LL-E19085α, LL-E19085β, LL-E19085γ, LL-E19085.zeta. and LL-E19085.eta. were determined by standard agar dilution methods against clinical isolates obtained from medical centers representing various geographical areas in the United States. The inoculum of each culture was approximately 1 to 5×10^4 colony forming units applied with a Steers multiple inocula replicator to plates containing the antibiotic in Mueller-Hinton agar. The agar was supplemented with about 5% sheep blood where required for the growth of the organism.

Enterococcus Grp D = settings: strain WRVA 88-33, Mueller-Hinton agar, read-out: Minimal Inhibitory Concentration
Experimental: as §1

Enterococcus = settings: strain CHBM 88-60, Mueller-Hinton agar, read-out: Minimal Inhibitory Concentration
Experimental: as §1

Escherichia coli = system: Escherichia coli
Experimental: as §1

Klebsiella pneumoniae = settings: strain NEMC 87-271, Mueller-Hinton agar, read-out: Minimal Inhibitory Concentration
Experimental: as §1

Staphylococcus aureus = settings: read-out: Minimal Inhibitory Concentration
Experimental: as §1

[1] = system: Staphylococcus hemolyticus; settings: read-out: Minimal Inhibitory Concentration
Experimental: as §1

[2] = system: Streptococcus a-hemolyticus; settings: strain AMCH 88-84, Mueller-Hinton agar, read-out: Minimal Inhibitory Concentration
Experimental: as §1

[3] = system: Streptococcus b-hemolyticus; settings: strain AMCH 88-86, Mueller-Hinton agar, read-out: Minimal Inhibitory Concentration
Experimental: as §1

Streptococcus faecalis = settings: Enterococcus faecalis, Mueller-Hinton agar, read-out: Minimal Inhibitory Concentration
Experimental: as §1

Streptococcus pneumoniae = settings: read-out: Minimal Inhibitory Concentration
Experimental: as §1

[4] = ATCC25922, strain ATCC 25922, Mueller-Hinton agar, read-out: Minimal Inhibitory Concentration
[5] = ATCC35218, strain ATCC 35218, Mueller-Hinton agar, read-out: Minimal Inhibitory Concentration
[6] = read-out: Minimal Inhibitory Concentration, strain D21, Mueller-Hinton agar
[7] = strain D22, Mueller-Hinton agar, read-out: Minimal Inhibitory Concentration
[8] = ATCC25923, strain ATCC 25923, Mueller-Hinton agar
[9] = ATCC29213, strain ATCC 29213, Mueller-Hinton agar
[10] = strain CMC 83-131, Mueller-Hinton agar
[11] = strain IVES 542, Mueller-Hinton agar
[12] = strain K82-26, Mueller-Hinton agar
[13] = strain NEMC 87-69, Mueller-Hinton agar
[14] = strain ROSE (MP), Mueller-Hinton agar
[15] = strain VGH 84-47, Mueller-Hinton agar
[16] = strain AVAH 88-1, Mueller-Hinton agar
[17] = strain AVAH 88-3, Mueller-Hinton agar
[18] = strain CHBB 88-75, Mueller-Hinton agar
[19] = strain CHBM 88-70, Mueller-Hinton agar
[20] = strain TEX 85-2, Mueller-Hinton agar

| SMILES | MIC (Bacteroides cereus) | MIC (Enterococcus Grp D) | MIC (Enterococcus) | MIC (Escherichia coli; [4]) | MIC (Escherichia coli; [5]) | MIC (Escherichia coli; [6]) | MIC (Escherichia coli; [7]) | MIC (Klebsiella pneumoniae) | MIC (Staphylococcus aureus; [8]) | MIC (Staphylococcus aureus; [9]) | MIC (Staphylococcus aureus; [10]) | MIC (Staphylococcus aureus; [11]) | MIC (Staphylococcus aureus; [12]) | MIC (Staphylococcus aureus; [13]) | MIC (Staphylococcus aureus; [14]) | MIC (Staphylococcus aureus; [15]) | MIC [1, 16] | MIC [1, 17] | MIC [2] | MIC [3] | also measured |
| --- | --- | --- | --- | --- | --- | --- | --- | --- | --- | --- | --- | --- | --- | --- | --- | --- | --- | --- | --- | --- | --- |
| COc1cc2oc3c(c(=O)c2cc1OC)C(=O)c1c(ccc2cc4c(c(O)c12)C(=O)N1C(C)(C4)OC(=O)C1(C)COC(=O)C(C)C)C3=O (stereo not drawn) [LL-E19085β] | 2 µg/mL (≈ 3.05 µM) | 2 µg/mL (≈ 3.05 µM) | 2 µg/mL (≈ 3.05 µM) | > 64 µg/mL | > 64 µg/mL | ≥ 64 µg/mL | 8 µg/mL (≈ 12.2 µM) | ≥ 64 µg/mL | 0.5 µg/mL (≈ 0.763 µM) | 2 µg/mL (≈ 3.05 µM) | 4 µg/mL (≈ 6.1 µM) | 4 µg/mL (≈ 6.1 µM) | 2 µg/mL (≈ 3.05 µM) | 4 µg/mL (≈ 6.1 µM) | 2 µg/mL (≈ 3.05 µM) | 4 µg/mL (≈ 6.1 µM) | 2 µg/mL (≈ 3.05 µM) | 4 µg/mL (≈ 6.1 µM) | 0.5 µg/mL (≈ 0.763 µM) | 2 µg/mL (≈ 3.05 µM) | MIC (Streptococcus faecalis; strain ARUM 87-41): 2 µg/mL (≈ 3.05 µM); MIC (Streptococcus faecalis; strain CMC 83-120): 2 µg/mL (≈ 3.05 µM); MIC (Streptococcus faecalis; strain VCH 84-69): 2 µg/mL (≈ 3.05 µM); MIC (Streptococcus faecalis; strain VCI 85-30): 2 µg/mL (≈ 3.05 µM); MIC (Streptococcus pneumoniae; [18]): 0.12 µg/mL (≈ 0.183 µM); MIC (Streptococcus pneumoniae; [19]): 0.25 µg/mL (≈ 0.381 µM); MIC (Streptococcus pneumoniae; [20]): 0.12 µg/mL (≈ 0.183 µM) |
| COc1cc2oc3c(c(=O)c2cc1OC)C(=O)c1c(ccc2cc4c(c(O)c12)C(=O)N1C(C)(C4)OC(=O)C1(C)COC(C)=O)C3=O (stereo not drawn) [LL-E19085γ] | 0.5 µg/mL (≈ 0.797 µM) | 0.5 µg/mL (≈ 0.797 µM) | 0.5 µg/mL (≈ 0.797 µM) | > 16 µg/mL | > 16 µg/mL | ≥ 16 µg/mL | 16 µg/mL (≈ 25.5 µM) | ≥ 16 µg/mL | ≥ 0.008 µg/mL | 1 µg/mL (≈ 1.59 µM) | 16 µg/mL (≈ 25.5 µM) | 8 µg/mL (≈ 12.7 µM) | ≤ 0.008 µg/mL | 4 µg/mL (≈ 6.37 µM) | 1 µg/mL (≈ 1.59 µM) | 1 µg/mL (≈ 1.59 µM) | 8 µg/mL (≈ 12.7 µM) | 0.5 µg/mL (≈ 0.797 µM) | ≤ 0.008 µg/mL | ≤ 0.008 µg/mL | MIC (Streptococcus faecalis; strain ARUM 87-41): 0.5 µg/mL (≈ 0.797 µM); MIC (Streptococcus faecalis; strain CMC 83-120): 1 µg/mL (≈ 1.59 µM); MIC (Streptococcus faecalis; strain VCH 84-69): 0.03 µg/mL (≈ 0.0478 µM); MIC (Streptococcus faecalis; strain VCI 85-30): 0.06 µg/mL (≈ 0.0956 µM); MIC (Streptococcus pneumoniae; [18]): ≤ 0.008 µg/mL; MIC (Streptococcus pneumoniae; [19]): ≤ 0.008 µg/mL; MIC (Streptococcus pneumoniae; [20]): ≤ 0.008 µg/mL |
| COc1cc2oc3c(c(=O)c2cc1OC)C(=O)c1c(ccc2cc4c(c(O)c12)C(=O)N1C(C)(C4)OC(=O)C1(C)CO)C3=O (stereo not drawn) [LL-E19085.eta.] | ≤ 0.015 µg/mL | ≤ 0.015 µg/mL | ≤ 0.015 µg/mL | > 32 µg/mL | > 32 µg/mL | ≥ 32 µg/mL | 2 µg/mL (≈ 3.42 µM) | ≥ 32 µg/mL | ≤ 0.015 µg/mL | ≤ 0.015 µg/mL | 0.12 µg/mL (≈ 0.205 µM) | ≤ 0.015 µg/mL | ≤ 0.015 µg/mL | ≤ 0.015 µg/mL | ≤ 0.015 µg/mL | ≤ 0.015 µg/mL | ≤ 0.015 µg/mL | ≤ 0.015 µg/mL | ≤ 0.015 µg/mL | ≤ 0.015 µg/mL | MIC (Streptococcus faecalis; strain ARUM 87-41): ≤ 0.015 µg/mL; MIC (Streptococcus faecalis; strain CMC 83-120): ≤ 0.015 µg/mL; MIC (Streptococcus faecalis; strain VCH 84-69): ≤ 0.015 µg/mL; MIC (Streptococcus faecalis; strain VCI 85-30): ≤ 0.015 µg/mL; MIC (Streptococcus pneumoniae; [18]): ≤ 0.015 µg/mL; MIC (Streptococcus pneumoniae; [19]): ≤ 0.015 µg/mL; MIC (Streptococcus pneumoniae; [20]): ≤ 0.015 µg/mL |
